Read-outs that look alike come from different tables or passages of the source.
Test: PK of compound of Formula (Ia) after single subcutaneous dose of solution formulations in beagle dogs
Format: in vivo
Details: male, beagle, dog, plasma, sc, 12 mg/kg, mean ± SD
Procedure: Formulations containing the compound of Formula (Ia), or a pharmaceutically acceptable salt thereof, were prepared as solutions and optionally administered subcutaneously or intramuscularly to rats, rabbits, and/or dogs.
(§1) A solution of about 400 mg/mL of the compound of Formula (Ia) having 17.00 w/w % water, 36.40 w/w % PEG 300, 35.20 w/w % of a sodium salt of a compound of Formula (Ia), 5.00 w/w % ethanol, and 6.40 w/w % poloxamer 188 was prepared. The solution was administered subcutaneously to male beagle dogs at a dose level of about 12 mg/kg and male Wistar Han rats at a dose level of about 50 mg/kg. The pharmacokinetic profiles were determined, and the results for dogs are summarized in Table and Table, while the results for rats are summarized in Table and Table below.
as §1, with “500” for “400”, “14.06” for “17.00”, “30.12” for “36.40”
A solution of about 300 mg/mL of the compound of Formula (Ia) having 23.33 w/w % water, 48.99 w/w % PEG 300, 26.47 w/w % of a sodium salt of a compound of Formula (Ia), and 1.21 w/w % poloxamer 188 was prepared. The solution was administered subcutaneously to male beagle dogs at a dose level of about 6 mg/kg and male Wistar Han rats at a dose level of about 50 mg/kg. The pharmacokinetic profiles were determined, and the results for dogs are summarized in Table and Table, while the results for rats are summarized in Table and Table below.
as §1, with “18.80” for “17.00”, “40.25” for “36.40”, “34.38” for “35.20”, “1.57” for “6.40”
as §1, with “500” for “400”, “16.29” for “17.00”, “34.88” for “36.40”, “41.92” for “35.20”, “1.91” for “6.40”
as §1, with “20.90” for “17.00”, “44.72” for “36.40”, “and 34.38” for “35.20”, “(Ia)” for “(Ia), 5.00 w/w % ethanol, and 6.40 w/w % poloxamer 188”
A solution of about 400 mg/mL of the compound of Formula (Ia) having 19.90 w/w % water, 42.59 w/w % PEG 300, 34.38 w/w % of a sodium salt of a compound of Formula (Ia), and 3.13 w/w % poloxamer 188 was prepared. The solution was administered subcutaneously to male beagle dogs at a dose level of about 12 mg/kg and male Wistar Han rats at a dose level of about 50 mg/kg. […]

[1] = n = 3 dogs, SC 12 mg/kg, solution T, 400 mg/mL
[2] = n = 3 dogs, SC 12 mg/kg, solution U, 500 mg/mL

AUC(0-t) (male beagle dogs, single SC 12 mg/kg, 400 mg/mL solution Z (3.13% poloxamer 188), n = 3, read-out: AUC0-3024 h): 175 ± 32 µM·h | AUC(0-t) (male beagle dogs, single SC 12 mg/kg, 400 mg/mL solution Z (3.13% poloxamer 188), n = 3, read-out: AUC0-3696 h): 177 ± 31 µM·h | Cmax (male beagle dogs, single SC 12 mg/kg, 500 mg/mL solution X (5.00% ethanol, 1.91% poloxamer 188), n = 3): 125 ± 95 nM | AUC(0-t) (male beagle dogs, single SC 12 mg/kg, 500 mg/mL solution X (5.00% ethanol, 1.91% poloxamer 188), n = 3, read-out: AUC0-24 h): 0.663 ± 0.157 µM·h | AUC(0-t) (male beagle dogs, single SC 12 mg/kg, 500 mg/mL solution X (5.00% ethanol, 1.91% poloxamer 188), n = 3, read-out: AUC0-168 h): 6.01 ± 1.87 µM·h | AUC(0-t) (male beagle dogs, single SC 12 mg/kg, 500 mg/mL solution X (5.00% ethanol, 1.91% poloxamer 188), n = 3, read-out: AUC0-672 h): 46.1 ± 32.5 µM·h | AUC(0-t) (male beagle dogs, single SC 12 mg/kg, 500 mg/mL solution X (5.00% ethanol, 1.91% poloxamer 188), n = 3, read-out: AUC0-1344 h): 90.8 ± 60 µM·h | AUC(0-t) (male beagle dogs, single SC 12 mg/kg, 500 mg/mL solution X (5.00% ethanol, 1.91% poloxamer 188), n = 3, read-out: AUC0-1680 h): 106 ± 68 µM·h | AUC(0-t) (male beagle dogs, single SC 12 mg/kg, 500 mg/mL solution X (5.00% ethanol, 1.91% poloxamer 188), n = 3, read-out: AUC0-2016 h): 116 ± 75 µM·h | AUC(0-t) (male beagle dogs, single SC 12 mg/kg, 500 mg/mL solution X (5.00% ethanol, 1.91% poloxamer 188), n = 3, read-out: AUC0-2253 h): 124 ± 44 µM·h | AUC(0-t) (male beagle dogs, single SC 12 mg/kg, 500 mg/mL solution X (5.00% ethanol, 1.91% poloxamer 188), n = 3, read-out: AUC0-2688 h): 130 ± 83 µM·h | AUC(0-t) (male beagle dogs, single SC 12 mg/kg, 500 mg/mL solution X (5.00% ethanol, 1.91% poloxamer 188), n = 3, read-out: AUC0-3024 h): 135 ± 86 µM·h | AUC(0-t) (male beagle dogs, single SC 12 mg/kg, 500 mg/mL solution X (5.00% ethanol, 1.91% poloxamer 188), n = 3, read-out: AUC0-4032 h): 145 ± 90 µM·h | AUC(0-t) (male beagle dogs, single SC 12 mg/kg, 500 mg/mL solution X (5.00% ethanol, 1.91% poloxamer 188), n = 3, read-out: AUC0-4368 h): 148 ± 91 µM·h | AUC(0-inf) [1]: 219 ± 54 µM·h | Cmax [1]: 353 ± 148 nM | Tmax [1]: 13 ± 8.54 days | half-life [1]: 14.7 days | AUC(0-t) (n = 3 dogs, SC 12 mg/kg, solution T, 400 mg/mL, read-out: AUC0-24 h): 2.64 ± 0.5 µM·h | AUC(0-t) (n = 3 dogs, SC 12 mg/kg, solution T, 400 mg/mL, read-out: AUC0-168 h): 36 ± 26.2 µM·h | AUC(0-t) (n = 3 dogs, SC 12 mg/kg, solution T, 400 mg/mL, read-out: AUC0-336 h): 76.1 ± 46.7 µM·h | AUC(0-t) (n = 3 dogs, SC 12 mg/kg, solution T, 400 mg/mL, read-out: AUC0-672 h): 148 ± 51 µM·h | AUC(0-t) (n = 3 dogs, SC 12 mg/kg, solution T, 400 mg/mL, read-out: AUC0-1334 h): 197 ± 48 µM·h | AUC(0-t) (n = 3 dogs, SC 12 mg/kg, solution T, 400 mg/mL, read-out: AUC0-2016 h): 213 ± 53 µM·h | AUC(0-t) (n = 3 dogs, SC 12 mg/kg, solution T, 400 mg/mL, read-out: AUC0-2352 h): 216 ± 54 µM·h | AUC(0-inf) [2]: 141 ± 14 µM·h | Cmax [2]: 175 ± 29 nM | Tmax [2]: 14.3 ± 11.5 days | half-life [2]: 18.3 days | AUC(0-t) (n = 3 dogs, SC 12 mg/kg, solution U, 500 mg/mL, read-out: AUC0-24 h): 1.8 ± 0.85 µM·h | AUC(0-t) (n = 3 dogs, SC 12 mg/kg, solution U, 500 mg/mL, read-out: AUC0-168 h): 12.9 ± 5.1 µM·h | AUC(0-t) (n = 3 dogs, SC 12 mg/kg, solution U, 500 mg/mL, read-out: AUC0-336 h): 33.9 ± 14.2 µM·h | AUC(0-t) (n = 3 dogs, SC 12 mg/kg, solution U, 500 mg/mL, read-out: AUC0-672 h): 78.5 ± 11.4 µM·h | AUC(0-t) (n = 3 dogs, SC 12 mg/kg, solution U, 500 mg/mL, read-out: AUC0-1334 h): 118 ± 6 µM·h | AUC(0-t) (n = 3 dogs, SC 12 mg/kg, solution U, 500 mg/mL, read-out: AUC0-2016 h): 133 ± 11 µM·h | AUC(0-t) (n = 3 dogs, SC 12 mg/kg, solution U, 500 mg/mL, read-out: AUC0-2352 h): 136 ± 12 µM·h | Cmax (n = 3 dogs, SC 12 mg/kg, solution W, 400 mg/mL): 200 ± 90 nM | AUC(0-t) (n = 3 dogs, SC 12 mg/kg, solution W, 400 mg/mL, read-out: AUC0-24 h): 0.505 ± 0.194 µM·h | AUC(0-t) (n = 3 dogs, SC 12 mg/kg, solution W, 400 mg/mL, read-out: AUC0-168 h): 6.82 ± 3.38 µM·h | AUC(0-t) (n = 3 dogs, SC 12 mg/kg, solution W, 400 mg/mL, read-out: AUC0-672 h): 65.1 ± 43.1 µM·h | AUC(0-t) (n = 3 dogs, SC 12 mg/kg, solution W, 400 mg/mL, read-out: AUC0-1344 h): 123 ± 54 µM·h | AUC(0-t) (n = 3 dogs, SC 12 mg/kg, solution W, 400 mg/mL, read-out: AUC0-1680 h): 142 ± 50 µM·h | AUC(0-t) (n = 3 dogs, SC 12 mg/kg, solution W, 400 mg/mL, read-out: AUC0-2016 h): 154 ± 47 µM·h | AUC(0-t) (n = 3 dogs, SC 12 mg/kg, solution W, 400 mg/mL, read-out: AUC0-2253 h): 164 ± 44 µM·h | AUC(0-t) (n = 3 dogs, SC 12 mg/kg, solution W, 400 mg/mL, read-out: AUC0-2688 h): 170 ± 42 µM·h | AUC(0-t) (n = 3 dogs, SC 12 mg/kg, solution W, 400 mg/mL, read-out: AUC0-3024 h): 174 ± 41 µM·h | AUC(0-t) (n = 3 dogs, SC 12 mg/kg, solution W, 400 mg/mL, read-out: AUC0-4032 h): 181 ± 39 µM·h | AUC(0-t) (n = 3 dogs, SC 12 mg/kg, solution W, 400 mg/mL, read-out: AUC0-4368 h): 182 ± 38 µM·h
Compound: CC(C)(C#Cc1ccc(-c2ccc(Cl)c3c(NS(C)(=O)=O)nn(CC(F)(F)F)c23)c([C@H](Cc2cc(F)cc(F)c2)NC(=O)Cn2nc(C(F)(F)F)c3c2C(F)(F)[C@@H]2C[C@H]32)n1)S(C)(=O)=O [compound of Formula (Ia)]

Source: patent US11807625B2, “Capsid inhibitors for the prevention of HIV” (Gilead Sciences, Inc., priority 2019, dated 2023)
